Laboratory results from patent publication US20100331297A1, “MODULATION OF PROTEIN TRAFFICKING” (FOLDRX PHARMACEUTICALS, INC., priority 2007, published 2010).

Assays:
Format in all cases: cell-based
ΔF508 CFTR [1] = target: T1, ΔF508 CFTR (Homo sapiens, UniProt P13569, DEL508-508); assay: Corrector activity, YFP halide (iodide) quenching assay in FRT cells expressing ΔF508 CFTR; design: expressed in transfected cells; host or cells: Fischer rat thyroid (FRT) cells; settings: 24 hours with compound at 37° C., forskolin and genistein
T1 sequence (P13569 with tags, fused parts or gaps DEL508-508): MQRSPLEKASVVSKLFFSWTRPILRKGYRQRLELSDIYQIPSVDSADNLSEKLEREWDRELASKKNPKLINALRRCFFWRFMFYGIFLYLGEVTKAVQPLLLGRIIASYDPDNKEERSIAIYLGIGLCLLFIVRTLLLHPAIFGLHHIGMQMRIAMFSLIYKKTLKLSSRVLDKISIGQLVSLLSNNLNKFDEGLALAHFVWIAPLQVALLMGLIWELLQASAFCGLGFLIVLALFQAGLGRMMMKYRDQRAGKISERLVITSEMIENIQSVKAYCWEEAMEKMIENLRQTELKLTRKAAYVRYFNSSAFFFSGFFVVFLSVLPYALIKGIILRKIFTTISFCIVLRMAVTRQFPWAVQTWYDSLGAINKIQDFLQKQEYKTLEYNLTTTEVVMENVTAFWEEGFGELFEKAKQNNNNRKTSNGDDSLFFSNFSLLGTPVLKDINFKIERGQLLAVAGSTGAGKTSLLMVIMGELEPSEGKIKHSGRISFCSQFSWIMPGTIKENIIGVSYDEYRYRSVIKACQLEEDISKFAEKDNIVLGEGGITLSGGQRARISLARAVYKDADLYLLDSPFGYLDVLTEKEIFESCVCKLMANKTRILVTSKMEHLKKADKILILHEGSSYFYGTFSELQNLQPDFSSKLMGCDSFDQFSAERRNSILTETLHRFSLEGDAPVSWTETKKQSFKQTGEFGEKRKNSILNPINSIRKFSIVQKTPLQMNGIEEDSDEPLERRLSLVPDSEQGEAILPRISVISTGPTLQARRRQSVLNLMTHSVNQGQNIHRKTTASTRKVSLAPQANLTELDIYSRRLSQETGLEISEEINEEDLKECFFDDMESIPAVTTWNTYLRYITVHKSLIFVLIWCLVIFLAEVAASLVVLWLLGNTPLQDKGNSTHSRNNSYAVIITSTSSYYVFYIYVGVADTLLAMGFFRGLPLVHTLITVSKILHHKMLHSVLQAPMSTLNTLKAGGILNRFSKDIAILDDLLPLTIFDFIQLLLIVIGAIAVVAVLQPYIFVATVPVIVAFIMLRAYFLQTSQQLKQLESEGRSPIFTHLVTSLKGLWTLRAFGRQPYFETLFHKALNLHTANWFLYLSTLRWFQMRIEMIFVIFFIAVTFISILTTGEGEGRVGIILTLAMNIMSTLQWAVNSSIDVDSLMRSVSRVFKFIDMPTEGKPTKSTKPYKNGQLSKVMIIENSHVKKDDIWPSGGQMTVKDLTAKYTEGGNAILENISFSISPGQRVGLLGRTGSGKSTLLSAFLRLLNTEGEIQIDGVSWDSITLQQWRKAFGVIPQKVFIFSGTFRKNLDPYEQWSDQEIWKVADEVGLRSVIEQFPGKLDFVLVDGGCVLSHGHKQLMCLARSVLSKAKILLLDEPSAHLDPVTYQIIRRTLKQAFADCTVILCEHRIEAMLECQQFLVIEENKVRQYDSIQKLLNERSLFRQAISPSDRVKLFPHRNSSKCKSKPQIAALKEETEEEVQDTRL
Procedure, shortened: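 FRT cells co-expressing ΔF508 CFTR and halide-sensitive YFP were incubated 24 h at 37° C with compounds, then stimulated 30 min at 37° C in PBS with forskolin and genistein. Endpoint fluorescence after iodide injection was normalized to initial reading; EC50 from 4-parameter fit with bottom constrained to DMSO control.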

ypt1^ts cells = assay: Rescue of growth of ypt1^ts mutant yeast (OD600); settings: Saccharomyces cerevisiae, read-out: Ypt1-ts MRC (Minimum Rescue Concentration), ypt1^ts cells, 35° C. and 37° C., OD600; multiple results separated by a comma
Description: The activity of the compounds as modulators of protein trafficking may be measured in the assays described herein that evaluate the ability of a compound to rescue an impairment in protein trafficking. For example, the yeast mutant cell line ypt1^ts can be used to identify compounds that rescue cells from the lethal phenotype of a mutant YPT1 allele (see, e.g., Examples and Schmitt et al. (1988) Cell 53:635-47). The activity may be measured, for example, in a whole yeast cell assay using 384-well screening protocol and an optical density measurement.
The yeast mutant cell line ypt1^ts suppresses, in a temperature dependent fashion, the dominant-lethal phenotype of a mutant YPT1 allele (Schmitt et al. (1988) Cell 53:635-47). The yeast mutant cell line ypt1^ts contains an allele of YPT1 that has two point mutations: one that changes an asparagine at position 121 to a isoleucine (N121I) and another that changes an alanine at position 161 to a valine (A161V). The N121I mutation causes dominant lethality by itself, but lethality is suppressed by the second mutation, resulting in a recessive loss of function phenotype at the restrictive temperatures. ypt1^ts cells grow normally at temperatures up to 25° C., but are growth arrested at 37° C. (Id.).
Compounds were screened to assess their ability to restore growth of ypt1^ts cells. The effect of the compounds was measured on ypt1^ts cells cultured at room temperature (permissive temperature), 37° C. (non-permissive temperature), and 35° C. (semi-permissive temperature).
To determine if the test compounds could rescue the ypt1^ts mutant phenotype, ypt1^ts cells were grown overnight in synthetic complete (SC) media supplemented with 2% glucose at room temperature. Log phase cells were diluted into SC 2% glucose media to an OD600 of 0.003. 100 μL of this culture was then aliquoted into each well of 96-well flat bottom microtiter plates. 1 μL of the test compounds dissolved in DMSO (at a concentration range from 5 mM-0.005 mM) or of DMSO alone was added to each well (50 μM-0.05 μM final concentration in 1% DMSO). Plates were mixed by vortexing and incubated at 35° C. and 37° C. Compound rescue of the ypt1^ts temperature sensitive defect was assessed by measuring the OD600 (optical density at 600 nm; cell growth) of the cultures. Plates incubated at 35° C. were measured at 24 and 40 hours incubation time while plates grown at 37° C. were measured after 40 hours of incubation.
Assays monitoring the rescue of ypt1^ts mutants were performed using a vehicle, a positive control (calcium), and the compounds identified in Table II. Results in Table II corresponding to an MRC (Minimum Rescue Concentration) for ypt1^ts of greater than or equal to 50 micromolar are labeled +; of an MRC for ypt1^ts of 10-50 micromolar are labeled ++; and of an MRC for ypt1^ts of less than 10 micromolar are labeled +++. Multiple results for a particular compound are separated by a comma.

ΔF508 CFTR [2] = target: T1, ΔF508 CFTR; assay: Potentiator activity, YFP halide (iodide) quenching assay in FRT cells expressing ΔF508 CFTR, 27° C. pre-incubation; design: expressed in transfected cells; host or cells: Fischer rat thyroid (FRT) cells; settings: FRT cells ΔF508 CFTR/YFP, 24 hours at 27° C., compound with forskolin 30 min
Procedure, shortened: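 FRT cells stably co-expressing ΔF508 CFTR and halide-sensitive YFP, grown 24 h at 37° C. then 24 h at 27° C. to raise surface CFTR. Compounds in PBS with forskolin, 30 min at 37° C.; iodide injected and YFP quenching (ex 485/em 530 nm) followed. EC50 from normalized endpoint fluorescence.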

[3] = FRT cells ΔF508 CFTR/YFP, read-out: Corrector EC50
[4] = Corrector EC50, FRT cells ΔF508 CFTR/YFP

With `CC(=O)Nc1ncnc2c1c(-c1ccc(Cl)cc1)nn2C(C)(C)C` [Compound No. 2, N-[1-tert-Butyl-3-(4-chloro-phenyl)-1H-pyrazolo[3,4-d]pyrimidin-4-yl]-acetamide] the EC50 (ΔF508 CFTR [1]; [3]) was 5 to 10 µM, the minimal effective concentration (ypt1^ts cells) was > 50 µM and the EC50 (ΔF508 CFTR [2]) was < 2 µM.
In the case of `Cn1nc(-c2ccc(Cl)cc2)c2c(N)ncnc21` [compound 1], the EC50 (ΔF508 CFTR [1]; [3]) is reported as > 15 µM and the minimal effective concentration (ypt1^ts cells) is reported as > 50 µM.
For `Nc1ncnc2c1c(-c1ccc(Cl)cc1)nn2C1CCCCC1` [compound 3], the EC50 (ΔF508 CFTR [1]; [3]) was > 15 µM and the minimal effective concentration (ypt1^ts cells) was > 50 µM.
For `Nc1ncnc2c1c(-c1ccc(Cl)cc1)nn2-c1ccccc1` [compound 4], the EC50 (ΔF508 CFTR [1]; [3]) was > 15 µM and the minimal effective concentration (ypt1^ts cells) was > 50 µM.
In the case of `CC(C)(C)n1nc(-c2cccc3ccccc23)c2c(N)ncnc21` [compound 6], the EC50 (ΔF508 CFTR [1]; [4]) is reported as > 15 µM and the minimal effective concentration (ypt1^ts cells) is reported as 10 to 50 µM.
In the case of `CC(C)(C)n1nc(-c2ccccc2)c2c(N)ncnc21` [compound 8], the EC50 (ΔF508 CFTR [1]; [3]) is reported as > 15 µM and the minimal effective concentration (ypt1^ts cells) is reported as > 50 µM.
For `CC(C)(C)n1nc(-c2cccc(Cl)c2)c2c(N)ncnc21` [compound 10], the EC50 (ΔF508 CFTR [1]; [3]) was > 15 µM, the minimal effective concentration (ypt1^ts cells) was > 50 µM and the EC50 (ΔF508 CFTR [2]) was < 2 µM.
`CC(C)(C)n1nc(-c2cc3ccccc3s2)c2c(N)ncnc21` [compound 16, 3-Benzo[b]thiophen-2-yl-1-tert-butyl-1H-pyrazolo[3,4-d]pyrimidin-4-ylamine] was tested, and the EC50 (ΔF508 CFTR [1]; [3]) was > 15 µM and the minimal effective concentration (ypt1^ts cells) was > 50 µM.
Compound `Cc1ccc(-c2nn(C(C)(C)C)c3ncnc(N)c23)cc1` [compound 24] has an EC50 (ΔF508 CFTR [1]; [4]) of 2 to 5 µM and a minimal effective concentration (ypt1^ts cells) of 10 to 50 µM.
`CC(C)n1nc(-c2ccc(Cl)cc2)c2c(N)ncnc21` [compound 27] showed an EC50 (ΔF508 CFTR [1]; [3]) of 2 to 5 µM and a minimal effective concentration (ypt1^ts cells) of 10 to 50 µM.
`Nc1ncnc2c1c(-c1ccc(Cl)cc1)nn2CC1CC1` [compound 29, 3-(4-Chloro-phenyl)-1-cyclopropylmethyl-1H-pyrazolo[3,4-d]pyrimidin-4-ylamine] was tested, and the EC50 (ΔF508 CFTR [1]; [3]) was 5 to 10 µM and the minimal effective concentration (ypt1^ts cells) was < 10 µM.
`C#CCn1nc(-c2ccc(Cl)cc2)c2c(N)ncnc21` [compound 30] was tested, and the EC50 (ΔF508 CFTR [1]; [3]) was > 15 µM and the minimal effective concentration (ypt1^ts cells) was > 50 µM.
For `CCn1nc(-c2ccc(Cl)cc2)c2c(N)ncnc21` [compound 31], the EC50 (ΔF508 CFTR [1]; [3]) was 5 to 10 µM, the minimal effective concentration (ypt1^ts cells) was < 10 µM and the EC50 (ΔF508 CFTR [2]) was > 15 µM.
With `C=CCn1nc(-c2ccc(Cl)cc2)c2c(N)ncnc21` [compound 32] the EC50 (ΔF508 CFTR [1]; [3]) was > 15 µM and the minimal effective concentration (ypt1^ts cells) was > 50 µM.
`Nc1ncnc2c1c(-c1ccc(Cl)cc1)nn2C1CCC1` [compound 33] was tested, and the EC50 (ΔF508 CFTR [1]; [3]) was 5 to 10 µM, the minimal effective concentration (ypt1^ts cells) was 10 to 50 µM and the EC50 (ΔF508 CFTR [2]) was < 2 µM.
In the case of `Nc1ncnc2c1c(-c1ccc(Cl)cc1)nn2C1CCCC1` [compound 34], the minimal effective concentration (ypt1^ts cells) is reported as 10 to 50 µM and the EC50 (ΔF508 CFTR [2]) is reported as < 2 µM.
For `CC(C)(C)n1nc(-c2ccc(F)cc2)c2c(NC(=O)c3ccccc3)ncnc21` [compound 40, N-[1-tert-Butyl-3-(4-fluoro-phenyl)-1H-pyrazolo[3,4-d]pyrimidin-4-yl]-benzamide], the EC50 (ΔF508 CFTR [1]; [3]) was > 15 µM and the minimal effective concentration (ypt1^ts cells) was > 50 µM.
In the case of `Cc1cc(-c2nn(C(C)(C)C)c3ncnc(N)c23)ccc1F` [compound 41], the EC50 (ΔF508 CFTR [1]; [3]) is reported as > 15 µM and the minimal effective concentration (ypt1^ts cells) is reported as > 50 µM.
In the case of `CCn1cc(-c2ccc(C)cc2)c2c(N)cccc21` [compound 43, 1-Ethyl-3-p-tolyl-1H-indol-4-ylamine], the EC50 (ΔF508 CFTR [1]; [3]) is reported as > 15 µM, the minimal effective concentration (ypt1^ts cells) is reported as > 50 µM and the EC50 (ΔF508 CFTR [2]) is reported as > 15 µM.
`CCn1nc(-c2ccc(C)cc2)c2c(N)cccc21` [compound 44, 1-Ethyl-3-p-tolyl-1H-indazol-4-ylamine] was tested, and the EC50 (ΔF508 CFTR [1]; [3]) was > 15 µM, the minimal effective concentration (ypt1^ts cells) was > 50 µM and the EC50 (ΔF508 CFTR [2]) was > 15 µM.
With `COC(=O)c1cnc2c(c(-c3ccc(C)cc3)nn2C(C)(C)C)c1N` [compound 46] the EC50 (ΔF508 CFTR [1]; [3]) was > 15 µM, the minimal effective concentration (ypt1^ts cells) was > 50 µM and the EC50 (ΔF508 CFTR [2]) was > 15 µM.
For `CNC(=O)c1cnc2c(c(-c3ccc(C)cc3)nn2C(C)(C)C)c1N` [compound 47], the EC50 (ΔF508 CFTR [1]; [3]) was > 15 µM, the minimal effective concentration (ypt1^ts cells) was > 50 µM and the EC50 (ΔF508 CFTR [2]) was > 15 µM.
With `CCn1nc(-c2ccc(Cl)cc2)c2c(NC(C)=O)ncnc21` [compound 53] the EC50 (ΔF508 CFTR [1]; [3]) was 5 to 10 µM and the minimal effective concentration (ypt1^ts cells) was > 50 µM.
With `Nc1ncnc2c1c(Cc1cccc3ccccc13)nn2C1CCC1` [compound 74] the EC50 (ΔF508 CFTR [1]; [3]) was > 15 µM and the minimal effective concentration (ypt1^ts cells) was < 10 µM.
`Nc1ncnc2c1c(Cc1cccc3ccccc13)nn2C1CCCC1` [compound 77] was tested, and the EC50 (ΔF508 CFTR [1]; [3]) was > 15 µM and the minimal effective concentration (ypt1^ts cells) was < 10 µM.
In the case of `CCn1nc2cccc(N)c2c1-c1ccc(C)cc1` [compound 80], the EC50 (ΔF508 CFTR [1]; [3]) is reported as > 15 µM, the minimal effective concentration (ypt1^ts cells) is reported as > 50 µM and the EC50 (ΔF508 CFTR [2]) is reported as > 15 µM.
With `CC(C)(C)n1nc(C(=O)c2ccccc2)c2c(N)ncnc21` [compound 83, (4-Amino-1-tert-butyl-1H-pyrazolo[3,4-d]pyrimidin-3-yl)-phenyl-methanone] the minimal effective concentration (ypt1^ts cells) was > 50 µM.
For `CC(C)(C)n1nc(C(=O)O)c2c(N)ncnc21` [compound 85, 4-Amino-1-tert-butyl-1H-pyrazolo[3,4-d]pyrimidine-3-carboxylic acid], the minimal effective concentration (ypt1^ts cells) was > 50 µM.
With `CCn1cc(-c2ccc(C)cc2)c2c(N)ncnc21` [compound 86] the EC50 (ΔF508 CFTR [1]; [3]) was 2 to 5 µM, the minimal effective concentration (ypt1^ts cells) was 10 to 50 µM and the EC50 (ΔF508 CFTR [2]) was 5 to 10 µM.
For `CN(C)c1cccc(C(O)c2nn(C(C)(C)C)c3ncnc(N)c23)c1` (centres unmarked) [compound 87], the minimal effective concentration (ypt1^ts cells) was > 50 µM.
`CC(C)(C)n1nc(CNc2ccccc2)c2c(N)ncnc21` [compound 88] showed a minimal effective concentration (ypt1^ts cells) of 10 to 50 µM.
With `CC(C)(C)n1nc(C(N)=O)c2c(N)ncnc21` [compound 89, 4-Amino-1-tert-butyl-1H-pyrazolo[3,4-d]pyrimidine-3-carboxylic acid amide] the minimal effective concentration (ypt1^ts cells) was > 50 µM.
For `CC(C)(C)n1nc(Cc2ccc(F)c3ccccc23)c2c(N)ncnc21` [compound 91], the minimal effective concentration (ypt1^ts cells) was < 10 µM.
In the case of `CC(C)(C)n1nc(Cc2cccc3ccccc23)c2c(N)nc(C3CC3)nc21` [compound 92], the minimal effective concentration (ypt1^ts cells) is reported as > 50 µM.
